Laboratory results taken from ChEMBL document CHEMBL1201862, “PubChem BioAssay data set” (2004).
Active and inactive are the calls of the source.

Experiments:
cells [1] = type: functional, cell-based
cells [2] = type: functional, cell-based; remark: listed apart in the source
Protein RecA = target: T1, Protein RecA (Mycobacterium tuberculosis, UniProt P9WHJ3); assay: Fluorescence Cell-Free Homogeneous Dose Retest to Identify Inhibitors of RecA-Intein Splicing Activity. [Related pubchem assays (depositor defined):AID2097, AID2223, AID489010, AID492950]; type: functional
T1 sequence (P9WHJ3 whole entry): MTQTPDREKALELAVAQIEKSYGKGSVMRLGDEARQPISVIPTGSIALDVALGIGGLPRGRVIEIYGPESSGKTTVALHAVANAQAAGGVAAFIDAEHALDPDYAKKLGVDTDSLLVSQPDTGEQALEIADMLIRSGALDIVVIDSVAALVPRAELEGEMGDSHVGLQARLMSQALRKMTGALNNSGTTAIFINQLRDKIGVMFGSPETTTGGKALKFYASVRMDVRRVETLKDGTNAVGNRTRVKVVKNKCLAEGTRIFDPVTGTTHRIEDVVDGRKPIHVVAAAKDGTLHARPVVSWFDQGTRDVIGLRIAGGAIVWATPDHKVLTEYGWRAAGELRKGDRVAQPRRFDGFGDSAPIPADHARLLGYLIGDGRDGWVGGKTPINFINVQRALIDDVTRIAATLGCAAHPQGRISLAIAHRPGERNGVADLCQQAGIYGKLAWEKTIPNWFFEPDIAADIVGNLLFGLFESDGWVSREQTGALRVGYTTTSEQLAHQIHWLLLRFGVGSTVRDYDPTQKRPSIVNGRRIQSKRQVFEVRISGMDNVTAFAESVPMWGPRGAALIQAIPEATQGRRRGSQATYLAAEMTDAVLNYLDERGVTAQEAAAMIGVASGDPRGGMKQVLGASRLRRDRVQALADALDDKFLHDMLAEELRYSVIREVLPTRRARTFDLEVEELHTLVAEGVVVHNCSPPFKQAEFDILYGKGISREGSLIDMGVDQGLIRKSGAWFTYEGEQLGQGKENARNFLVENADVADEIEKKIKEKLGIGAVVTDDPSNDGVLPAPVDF

[3] = target: T2, Replicative DNA helicase DnaB (Mycobacterium tuberculosis, UniProt P9WMR3); assay: DnaB intein splicing inhibitors, dose response, biochemical, cell-free fluorescence (AID 449749); type: functional
T2 sequence (P9WMR3 whole entry): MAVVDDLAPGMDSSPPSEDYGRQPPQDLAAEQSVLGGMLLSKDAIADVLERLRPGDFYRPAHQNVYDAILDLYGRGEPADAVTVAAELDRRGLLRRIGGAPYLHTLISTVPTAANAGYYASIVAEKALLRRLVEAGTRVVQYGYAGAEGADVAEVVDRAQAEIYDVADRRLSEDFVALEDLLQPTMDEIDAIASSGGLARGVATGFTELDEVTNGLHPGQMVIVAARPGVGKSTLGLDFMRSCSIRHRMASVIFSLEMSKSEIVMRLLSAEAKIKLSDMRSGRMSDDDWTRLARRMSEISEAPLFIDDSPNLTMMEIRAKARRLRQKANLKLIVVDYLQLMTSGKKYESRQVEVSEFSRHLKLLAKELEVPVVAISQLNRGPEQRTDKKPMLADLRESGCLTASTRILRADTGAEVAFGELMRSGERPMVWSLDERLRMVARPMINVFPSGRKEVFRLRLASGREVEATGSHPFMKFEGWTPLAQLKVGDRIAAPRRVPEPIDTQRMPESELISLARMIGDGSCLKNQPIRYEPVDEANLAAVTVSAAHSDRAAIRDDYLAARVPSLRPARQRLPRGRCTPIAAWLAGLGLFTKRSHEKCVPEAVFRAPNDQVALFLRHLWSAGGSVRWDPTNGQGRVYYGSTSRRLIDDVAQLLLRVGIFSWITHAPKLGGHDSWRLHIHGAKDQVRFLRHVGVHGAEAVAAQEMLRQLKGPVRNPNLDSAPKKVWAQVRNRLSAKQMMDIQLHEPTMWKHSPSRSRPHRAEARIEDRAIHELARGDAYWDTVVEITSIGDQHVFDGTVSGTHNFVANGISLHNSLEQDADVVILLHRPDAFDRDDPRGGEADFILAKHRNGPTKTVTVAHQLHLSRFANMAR

[4] = target: T3, Apoptotic protease-activating factor 1 (Homo sapiens, UniProt O14727); type: functional
T3 sequence (O14727 whole entry): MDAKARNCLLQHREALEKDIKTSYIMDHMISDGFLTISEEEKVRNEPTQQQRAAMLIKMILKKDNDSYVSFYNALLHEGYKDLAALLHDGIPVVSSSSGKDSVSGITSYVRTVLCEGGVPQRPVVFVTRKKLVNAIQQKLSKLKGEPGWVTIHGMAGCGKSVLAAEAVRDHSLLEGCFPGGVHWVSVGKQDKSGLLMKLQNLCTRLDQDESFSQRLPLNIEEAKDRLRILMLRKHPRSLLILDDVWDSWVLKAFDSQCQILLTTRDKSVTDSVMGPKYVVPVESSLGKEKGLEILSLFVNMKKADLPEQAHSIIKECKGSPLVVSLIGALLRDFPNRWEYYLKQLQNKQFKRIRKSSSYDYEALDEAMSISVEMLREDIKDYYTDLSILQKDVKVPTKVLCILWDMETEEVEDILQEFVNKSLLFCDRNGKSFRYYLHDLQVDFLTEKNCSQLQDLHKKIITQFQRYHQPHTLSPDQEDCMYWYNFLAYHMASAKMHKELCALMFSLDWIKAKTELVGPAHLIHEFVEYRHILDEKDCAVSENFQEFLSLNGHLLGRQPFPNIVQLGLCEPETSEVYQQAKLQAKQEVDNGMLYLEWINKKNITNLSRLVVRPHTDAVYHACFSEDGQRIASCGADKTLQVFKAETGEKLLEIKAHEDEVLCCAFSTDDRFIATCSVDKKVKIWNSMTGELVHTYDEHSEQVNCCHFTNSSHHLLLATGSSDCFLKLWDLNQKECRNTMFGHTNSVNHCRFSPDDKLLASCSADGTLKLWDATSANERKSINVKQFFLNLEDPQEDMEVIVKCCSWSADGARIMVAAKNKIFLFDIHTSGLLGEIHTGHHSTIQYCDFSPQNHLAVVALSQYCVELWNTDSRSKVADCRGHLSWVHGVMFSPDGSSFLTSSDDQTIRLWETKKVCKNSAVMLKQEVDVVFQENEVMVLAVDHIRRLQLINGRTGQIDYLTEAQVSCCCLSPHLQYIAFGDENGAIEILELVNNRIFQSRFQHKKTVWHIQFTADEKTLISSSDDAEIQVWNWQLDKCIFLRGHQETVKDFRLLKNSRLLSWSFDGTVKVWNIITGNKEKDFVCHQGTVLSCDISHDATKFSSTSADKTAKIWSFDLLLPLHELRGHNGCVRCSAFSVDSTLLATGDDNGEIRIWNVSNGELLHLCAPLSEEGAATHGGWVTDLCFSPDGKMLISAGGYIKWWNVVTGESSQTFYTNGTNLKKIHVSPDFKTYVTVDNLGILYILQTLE

[5] = inhibitors of clade B AD8 Env fusion, dose response, cell-based, cherry-pick (AID 652062); type: functional;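 note: luciferase signal from cell-cell fusion driven by HIV-1 clade B AD8 Env; potency is for inhibitors of fusion seen as a drop in luminescence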
[6] = inhibitors of HIV Env-driven cell fusion, dose response, cherry-pick (AID 652057); type: functional, cell-based
[7] = off-target signal loss in HeLa-CEM21 co-culture – HeLa F-luc CTL cells, cherry-picked, counter-screen for HIV-1 Env fusion inhibitor project, dose response (AID 652040); type: functional, cell-based;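 note: potency for signal decrease marking cytotoxic or nonspecific inhibition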
[8] = ZM109 Env clade C HIV-1 fusion inhibitors, dose response, HeLa effector, CEM target cells, luciferase, cherry-pick (AID 652058); type: functional, cell-based
Fatty acid synthase [9] = target: T4, Fatty acid synthase (Homo sapiens, UniProt P49327); assay: FAS thioesterase domain inhibitors, dose response, biochemical, kinetic fluorescence intensity (AID 624326); type: functional;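 note: rate of fluorescence rise from hydrolysis of a fluorogenic O-methyl fluorescein ester substrate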
T4 sequence (P49327 whole entry, the tested form may be a part): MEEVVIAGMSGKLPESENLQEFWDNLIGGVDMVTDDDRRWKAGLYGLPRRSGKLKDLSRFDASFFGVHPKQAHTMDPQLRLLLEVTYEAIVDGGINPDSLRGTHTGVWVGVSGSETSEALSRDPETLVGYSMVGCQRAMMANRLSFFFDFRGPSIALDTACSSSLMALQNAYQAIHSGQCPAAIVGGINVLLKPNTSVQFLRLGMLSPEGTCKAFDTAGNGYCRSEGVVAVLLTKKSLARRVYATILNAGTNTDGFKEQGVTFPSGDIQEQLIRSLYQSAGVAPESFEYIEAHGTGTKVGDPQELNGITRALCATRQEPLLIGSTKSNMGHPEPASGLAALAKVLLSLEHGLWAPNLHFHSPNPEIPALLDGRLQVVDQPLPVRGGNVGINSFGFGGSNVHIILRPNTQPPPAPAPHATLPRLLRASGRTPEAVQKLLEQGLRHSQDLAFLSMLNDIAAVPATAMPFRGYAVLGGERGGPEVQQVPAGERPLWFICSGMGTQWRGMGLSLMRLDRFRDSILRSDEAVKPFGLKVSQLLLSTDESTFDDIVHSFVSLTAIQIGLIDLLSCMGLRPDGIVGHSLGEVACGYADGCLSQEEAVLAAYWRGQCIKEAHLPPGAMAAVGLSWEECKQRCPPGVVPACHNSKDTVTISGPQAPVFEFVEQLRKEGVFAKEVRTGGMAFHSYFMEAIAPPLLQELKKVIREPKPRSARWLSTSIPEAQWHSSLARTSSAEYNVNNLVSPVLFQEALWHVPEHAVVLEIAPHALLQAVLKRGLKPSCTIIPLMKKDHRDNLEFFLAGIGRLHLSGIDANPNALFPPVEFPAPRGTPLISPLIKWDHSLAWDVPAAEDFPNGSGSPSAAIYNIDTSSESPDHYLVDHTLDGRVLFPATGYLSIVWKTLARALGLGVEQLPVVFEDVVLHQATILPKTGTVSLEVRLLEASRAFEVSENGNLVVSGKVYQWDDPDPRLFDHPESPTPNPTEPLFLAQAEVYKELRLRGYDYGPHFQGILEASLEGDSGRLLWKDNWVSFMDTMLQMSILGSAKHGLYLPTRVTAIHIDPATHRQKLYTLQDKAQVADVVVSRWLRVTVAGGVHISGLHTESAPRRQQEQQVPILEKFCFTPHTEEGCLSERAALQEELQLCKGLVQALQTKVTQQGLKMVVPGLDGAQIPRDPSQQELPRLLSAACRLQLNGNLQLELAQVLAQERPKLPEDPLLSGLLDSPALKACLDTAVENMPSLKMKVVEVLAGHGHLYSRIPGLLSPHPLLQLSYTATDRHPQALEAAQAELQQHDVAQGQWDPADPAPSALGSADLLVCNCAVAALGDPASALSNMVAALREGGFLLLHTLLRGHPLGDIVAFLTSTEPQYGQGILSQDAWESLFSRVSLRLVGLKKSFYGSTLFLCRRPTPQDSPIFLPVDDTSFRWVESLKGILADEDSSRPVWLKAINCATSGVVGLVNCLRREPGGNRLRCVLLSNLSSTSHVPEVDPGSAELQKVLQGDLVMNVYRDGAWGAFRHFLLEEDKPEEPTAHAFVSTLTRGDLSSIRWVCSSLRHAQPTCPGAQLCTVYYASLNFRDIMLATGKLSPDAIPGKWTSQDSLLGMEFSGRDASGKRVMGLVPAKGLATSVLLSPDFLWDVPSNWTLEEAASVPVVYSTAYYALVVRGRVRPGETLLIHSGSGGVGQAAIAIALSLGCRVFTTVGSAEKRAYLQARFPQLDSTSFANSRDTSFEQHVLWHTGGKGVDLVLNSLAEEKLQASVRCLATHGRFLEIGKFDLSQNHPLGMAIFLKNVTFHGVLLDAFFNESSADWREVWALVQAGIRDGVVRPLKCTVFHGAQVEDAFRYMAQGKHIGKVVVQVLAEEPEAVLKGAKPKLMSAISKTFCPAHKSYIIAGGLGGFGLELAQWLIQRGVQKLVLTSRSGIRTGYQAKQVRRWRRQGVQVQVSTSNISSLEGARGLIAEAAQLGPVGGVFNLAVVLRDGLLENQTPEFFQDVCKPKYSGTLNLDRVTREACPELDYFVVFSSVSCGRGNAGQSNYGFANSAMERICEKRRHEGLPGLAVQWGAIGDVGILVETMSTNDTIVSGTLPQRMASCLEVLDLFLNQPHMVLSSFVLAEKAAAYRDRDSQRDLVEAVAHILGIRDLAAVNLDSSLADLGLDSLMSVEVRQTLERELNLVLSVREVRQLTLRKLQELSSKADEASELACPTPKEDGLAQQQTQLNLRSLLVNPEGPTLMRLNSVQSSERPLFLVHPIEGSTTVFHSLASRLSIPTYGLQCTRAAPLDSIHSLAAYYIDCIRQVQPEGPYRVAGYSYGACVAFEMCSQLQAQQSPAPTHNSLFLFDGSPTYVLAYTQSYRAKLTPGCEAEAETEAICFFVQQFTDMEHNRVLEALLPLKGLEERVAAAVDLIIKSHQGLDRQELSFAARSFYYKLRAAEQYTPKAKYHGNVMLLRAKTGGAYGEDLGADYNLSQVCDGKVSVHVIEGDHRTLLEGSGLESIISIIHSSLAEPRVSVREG

Fatty acid synthase [10] = target: T4, Fatty acid synthase; assay: FAS thioesterase domain inhibitors, dose response, biochemical, endpoint fluorescence intensity, uHTS hits (AID 624327); type: functional;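 note: fluorescence from hydrolysis of an O-methyl fluorescein acyl ester substrate by the enzyme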
[11] = control 3'UTR Renilla luciferase suppression, dose response, counter-screen for Shn3 inhibitor project, cell-based, Clone20-Shn3RL, cherry-picked (AID 624133); type: functional
[12] = Shn3 3'UTR reporter inhibitors, dose response, cell-based, Clone20 osteoblasts, firefly luciferase, cherry-picked (AID 624132); type: functional;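 note: firefly luciferase luminescence from reporter carrying the Shn3 3'UTR in osteoblasts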
[13] = inhibitors of firefly luciferase expression or activity, dose response, H4 neuroglioma cells, luminescence (AID 1990); type: functional, cell-based
[14] = HepG2 cell cytotoxicity, dose response, cytotoxicity control for Shn3 inhibitor project, CellTiter-Glo, cherry-picked (AID 624134); type: functional, cell-based
[15] = Luminescence Cell-Based Dose Response HTS to Identify Inhibitors of 5'UTR Stem-Loop Driven Prion Protein mRNA Translation in H4 Neuroglioblastoma Cells. [Related pubchem assays: 1827 (Project Summary), 1813 (Primary HTS)]; type: functional
[16] = Luminescence Cell-Based Dose Retest to Confirm Inhibitors of Cancer Stem Cells. [Related pubchem assays (depositor defined):AID2717, AID2721]; type: functional; settings: Homo sapiens
[17] = CEM21 lymphoblast cell cytotoxicity, dose response, cytotoxicity control for viral fusion inhibitor project, CellTiter-Glo luminescence, cherry-picked (AID 652042); type: functional, cell-based;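 note: potency for signal decrease meaning cytotoxicity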
[18] = inhibitors of SNCA 5'UTR-driven reporter translation, confirmation, H4 neuroglioma cells, luminescence (AID 1988); type: functional, cell-based

Compound | AC50 [5] | AC50 [6] | AC50 [7] | AC50 [8] | IC50 (Fatty acid synthase [9]) | IC50 (Fatty acid synthase [10]) | also measured
CC(C)(C)CN1CCNC(=O)C1CC(=O)NCCc1ccccc1F (stereo not given) |  |  |  |  |  |  | IC50 (cells [1]): > 29.9 µM (inactive); EC50 (cells [2]): > 29.9 µM (inactive)
CC(=O)N(C1=C(N)C(=O)c2ccccc2C1=O)c1ccccc1 |  |  |  |  |  |  | EC50 (Protein RecA): 2.18 µM (active); AC50 [3]: 3.46 µM (active); IC50 [4]: 10.4 µM (active)
Cc1ccc(S(=O)(=O)N2CCC(=O)N(CCOC(=O)Nc3cccc(Cl)c3)CC2)cc1 | 7.72 µM (active) | 3.12 µM (active) | 4.11 µM (active) | 4.6 µM (active) |  |  | 
O=C(/C=C/c1cc([N+](=O)[O-])ccc1OC(F)F)Nc1cccc2ccccc12 |  |  |  |  | 61.9 µM (inactive) | 24.6 µM (inactive) | 
CCN1CCN(S(=O)(=O)c2ccc(Cl)c(C(=O)N(C)Cc3ccc(C(C)(C)C)cc3)c2)CC1 |  |  |  |  | 17.3 µM (active) | 13.5 µM (active) | 
C[C@H](CO)N1C[C@H](C)[C@@H](CN(C)C(=O)NC2CCCCC2)Oc2c(NC(=O)Nc3ccccc3)cccc2C1=O |  |  |  |  | 3.04 µM (active) | 4.16 µM (active) | 
C#CCN(C[C@H]1[C@H](OC(=O)NC2CCCC2)[C@H](OC(=O)NC2CCCC2)C[C@H]2C(=O)N(c3ccccc3)C(=O)[C@@H]12)S(=O)(=O)c1ccc(C)cc1 |  |  |  |  | 23 µM (inactive) | 47.5 µM (inactive) | 
Cc1cc(C)c(S(=O)(=O)/N=C2\C=C(NS(=O)(=O)c3ccccc3)C(=O)c3ccccc32)c(C)c1 |  |  |  |  |  |  | IC50 [4]: 31.1 µM (active)
Fc1ccc(C(OCCN2CCN(CCCc3ccccc3)CC2)c2ccc(F)cc2)cc1 | 12.3 µM (active) | 8.27 µM (active) | 13 µM (active) | 8.74 µM (active) |  |  | AC50 [11]: 8.11 µM (active); AC50 [12]: 6.17 µM (active); EC50 [13]: 9.61 µM (active); AC50 [14]: 38.8 µM (active); EC50 [15]: > 120 µM (not active); AC50 [16]: 3.05 µM (active); AC50 [17]: 14.5 µM (active); EC50 [18]: > 120 µM (not active)
COc1ccc(C(O)(CCC(C)C)C(CN2CCOCC2)c2ccccc2)cc1 (stereo not given) | 40.3 µM (active) | 5.79 µM (active) | 23.8 µM (active) | 23.3 µM (active) |  |  | AC50 [17]: 51.9 µM (active)
